According to patent publication US12329738B2, “Urolithin A and a composition containing same for external use in inflammations of various etiologies” (WARSZAWSKI UNIWERSYTET MEDYCZNY, priority 2018, dated 2025):

Columns and labels:
[1] = system: NHDF fibroblasts (human normal skin fibroblasts); conditions: comparative studies by the inventors
Experimental: NHDF fibroblasts (human normal skin fibroblasts) were cultured in the DMEM medium supplemented with 10% FBS and a mixture of antibiotics—penicillin and streptomycin at 37° C., 5% CO2. […] After incubation with the compounds, the cells were washed twice with warm medium. The effect on cell viability was assessed using a standard MTT test.

ERK1/2 = ERK1/2 phosphorylation in THP-1 derived macrophages (Western blotting); assay type: cell-based, human; conditions: 40 μM; LPS 10 ng/mL, 35 min; FIG. 15
Experimental: Monocytes of the THP-1 line were cultured in RPMI 1640 medium supplemented with 10% FBS and 2 mM glutamine. For transformation of monocytes into macrophages, the cells were treated with 12.5 ng/mL PMA (phorbol 12-myristate 13-acetate) for 48 hours, then washed and incubated for 24 hours in a culture medium without PMA. After this time, urolithin A, urolithin B, iso-urolithin A and the corresponding glucuronides (GUA, GUB and GiUA) were added to the cells at a concentration of 40 μM. After 1 hour of incubation with the compounds, the cells were stimulated with LPS from Escherichia coli (10 ng/mL). To assess the level of TNF-alpha production, the cells were incubated for 6 hours, to assess the expression of mRNA for TNF-alpha, the cells were incubated for 24 hours, to assess the effect on ERK1/2 phosphorylation, the cells were incubated for 35 minutes. […] The obtained results of experiments on in vitro models were analyzed using the Statistica 13 program (StatSoft, Inc., Tulsa, OK, USA) and presented as mean values±SEM. Statistical significance was set at P≤0.05. The results with established normal distribution in the D'Agostin and Pearson test were prepared using analysis of variance (ANOVA). Parametric post-hoc analysis was performed using Dunnett's test.

TNF-alpha [2] = test: TNF-alpha production by THP-1 derived macrophages (ELISA); assay type: cell-based, human; conditions: 40 μM; LPS stimulation; FIG. 13
Experimental: (§1) Monocytes of the THP-1 line were cultured in RPMI 1640 medium supplemented with 10% FBS and 2 mM glutamine. For transformation of monocytes into macrophages, the cells were treated with 12.5 ng/mL PMA (phorbol 12-myristate 13-acetate) for 48 hours, then washed and incubated for 24 hours in a culture medium without PMA. After this time, urolithin A, urolithin B, iso-urolithin A and the corresponding glucuronides (GUA, GUB and GiUA) were added to the cells at a concentration of 40 μM. After 1 hour of incubation with the compounds, the cells were stimulated with LPS from Escherichia coli (10 ng/mL).
(§2) To assess the level of TNF-alpha production, the cells were incubated for 6 hours, to assess the expression of mRNA for TNF-alpha, the cells were incubated for 24 hours, to assess the effect on ERK1/2 phosphorylation, the cells were incubated for 35 minutes.
(§3) The level of TNF-alpha in the culture medium was determined using the immunochemical ELISA method (BD biosciences). Evaluation of the expression of mRNA for TNF-alpha was performed using real time PCR. After 24 hours of incubation, RNA was isolated using NucleoSpin RNA Clean-up (Macherey-Nagel). The amount and quality of isolated RNA was determined using 2100 Bioanalyzer (Agilent Technologies). The expression level of mRNA for TNF-α was determined using Brilliant II SYBR Green QPCR Kit and Aria Mx Real-Time PCR thermocycler (Agilent Technologies). The following were used as primers for TNF-alpha: forward: 5′-[…]-3′, reverse: 5′-[…]-3′. Beta-actin (ACTB) was used as the housekeeping gene; primer forward: 5′-[…]-3′, reverse: 5′-[…]-3′).
(§4) The obtained results of experiments on in vitro models were analyzed using the Statistica 13 program (StatSoft, Inc., Tulsa, OK, USA) and presented as mean values±SEM. Statistical significance was set at P≤0.05. The results with established normal distribution in the D'Agostin and Pearson test were prepared using analysis of variance (ANOVA). Parametric post-hoc analysis was performed using Dunnett's test.

TNF-alpha [3] = test: TNF-alpha production by macrophages from human peripheral blood monocytes (ELISA); assay type: cell-based; conditions: 40 μM; LPS 100 ng/mL, 24 h; FIG. 16
Experimental: Monocytes were isolated from peripheral human blood by a standard method using dextran sedimentation and Ficoll Hypaque gradient centrifugation. After isolation, monocytes were suspended in RPMI 1640 medium supplemented with L-glutamine, HEPES, streptomycin, amphotericin and gentamicin, and 20% autologous serum. Cell culture was carried out under these conditions for 7 days. […] After 24h, TNF-alpha level in the medium was determined using the immunochemical ELISA method (BD biosciences). The obtained results of experiments on in vitro models were analyzed using the Statistica 13 program (StatSoft, Inc., Tulsa, OK, USA) and presented as mean values±SEM. Statistical significance was set at P≤0.05. The results with established normal distribution in the D'Agostin and Pearson test were prepared using analysis of variance (ANOVA). Parametric post-hoc analysis was performed using Dunnett's test.

tyrosinase = biological target: T1, tyrosinase (Mus musculus, UniProt P11344); conditions: B16 melanoma cells; cited from earlier work
T1 sequence (P11344 19-533): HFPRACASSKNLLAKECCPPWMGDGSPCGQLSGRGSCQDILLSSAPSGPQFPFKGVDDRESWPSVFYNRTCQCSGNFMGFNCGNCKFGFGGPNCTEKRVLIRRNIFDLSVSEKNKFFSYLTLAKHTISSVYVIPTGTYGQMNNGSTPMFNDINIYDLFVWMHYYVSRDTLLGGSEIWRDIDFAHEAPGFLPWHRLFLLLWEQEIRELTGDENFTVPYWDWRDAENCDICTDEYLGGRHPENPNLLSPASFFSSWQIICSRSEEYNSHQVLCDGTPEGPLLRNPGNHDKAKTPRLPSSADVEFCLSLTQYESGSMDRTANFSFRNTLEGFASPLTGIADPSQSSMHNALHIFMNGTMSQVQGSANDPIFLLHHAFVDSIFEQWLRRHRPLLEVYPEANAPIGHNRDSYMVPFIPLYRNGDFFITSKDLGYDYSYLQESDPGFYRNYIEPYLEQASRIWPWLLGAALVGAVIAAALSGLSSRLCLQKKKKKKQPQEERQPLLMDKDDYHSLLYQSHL

mRNA for TNF-alpha = test: TNF-alpha mRNA expression in THP-1 derived macrophages (real time PCR); assay type: cell-based, human; conditions: 40 μM; LPS stimulation; FIG. 14
Experimental: as §1, §2, §3, §4

## CC(=O)Oc1ccc2c(c1)c(=O)oc1cc(O)ccc12 [8-acetyl-urolithin A]
[1]
  Antiproliferative activity on human skin fibroblast cells: neither urolithin A, nor 8-acetyl-urolithin A, nor 3-acetyl-urolithin A showed antiproliferative activity

## O=c1oc2cc(O)ccc2c2ccccc12 [urolithin B]
ERK1/2
  ERK1/2 kinase phosphorylation in THP-1 derived macrophages: did not exhibit such activity
TNF-alpha [2]
  TNF-alpha production by THP-1 derived macrophages: did not show any activity
TNF-alpha [3]
  Inhibition of TNF-alpha production by macrophages from human peripheral blood monocytes: inactive
tyrosinase
  Tyrosinase activity (depigmentation): suppressing tyrosinase activity
mRNA for TNF-alpha
  TNF-alpha mRNA expression in THP-1 derived macrophages: inactive

## CC(=O)Oc1ccc2c(c1)oc(=O)c1cc(O)ccc12 [3-acetyl-urolithin A]
[1]
  Antiproliferative activity on human skin fibroblast cells: neither urolithin A, nor 8-acetyl-urolithin A, nor 3-acetyl-urolithin A showed antiproliferative activity
